Measured values published in article PMC9898036, “VIP152 is a selective CDK9 inhibitor with pre-clinical in vitro and in vivo efficacy in chronic lymphocytic leukemia” (Leukemia, 2022).

Assays:
[1] = molecular target: CDK9 (Homo sapiens, UniProt P50750); experiment: KINOMEscan: CDK9; format: binding
Protocol: The structure and synthesis of VIP152 were recently described by Lücking et al.. (Fig. 1A); however, the selectivity of the molecule in cellular systems has yet to be explored. […] We also performed this experiment at 1000 nM, where CDK9 was inhibited at 99%. […] We found a strong concordance between our data and those of Lücking when comparing the most inhibited kinases. Potential off-target effects of VIP152 were next tested in vitro at a concentration of 10 µM for off-target activity against a broad range of receptors, transporters, ion channels, and enzymes (n = 138) using the Eurofins Diversity Panel.
Kinomescan Kinase Profiling Assay
Kinomescan Assay was performed at DiscoverRX and described in Fabian, et al. 2005, Nat.
Biotechnol. In brief, kinases were produced and subsequently tagged with DNA for qPCR detection.
Streptavidin-coated magnetic beads were bound to biotinylated kinase ligands to serve as a solid support.
VIP152 was dissolved in DMSO and tested across a 10 serial threefold dilution set and compared to a test compound and a DMSO control. Kinases which were inhibited by VIP152 would not be bound to the solid-support resulting in decreased substrate for the qPCR reaction. Kinome map was produced via TreeSpot Analysis from DiscoverRX. […]
NanoBRETTM Target Engagement Assay Protocol […]
Complete 20X NanoBRET Tracer Reagent was prepared with Tracer Dilution Buffer and dispensed at a ratio of 1:20 Reagent to cells in the tube. The cell

[2] = molecular target: Endothelin ETB (Homo sapiens, UniProt P24530); experiment: Eurofins Diversity Panel; format: binding; details: hum, Conc. 10 μM
Endothelin ETB, sequence (P24530 27-442): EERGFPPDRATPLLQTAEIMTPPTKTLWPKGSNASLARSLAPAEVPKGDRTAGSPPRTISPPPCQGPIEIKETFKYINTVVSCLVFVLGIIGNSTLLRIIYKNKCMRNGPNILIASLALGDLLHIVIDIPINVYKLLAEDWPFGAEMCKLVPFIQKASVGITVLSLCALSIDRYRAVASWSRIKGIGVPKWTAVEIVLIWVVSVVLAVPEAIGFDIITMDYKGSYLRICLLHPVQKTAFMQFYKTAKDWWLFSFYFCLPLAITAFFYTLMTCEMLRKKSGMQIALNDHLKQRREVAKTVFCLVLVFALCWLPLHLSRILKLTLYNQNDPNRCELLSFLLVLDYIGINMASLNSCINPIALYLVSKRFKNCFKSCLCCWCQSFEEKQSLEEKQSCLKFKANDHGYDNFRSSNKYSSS

[3] = system: Nicotinic Acetylcholine; experiment: Eurofins Diversity Panel; format: binding, human; details: hum, Conc. 10 μM
[4] = system: Thyroid Hormone; experiment: Eurofins Diversity Panel; format: binding; details: rat, Conc. 10 μM
[5] = molecular target: RIPK1 (Homo sapiens, UniProt Q13546); experiment: KINOMEscan: RIPK1; format: binding; details: 100 nM, read-out: Percent Control
[6] = molecular target: TAK1 (Homo sapiens, UniProt O43318); experiment: KINOMEscan: TAK1; format: binding; details: 100 nM, read-out: Percent Control
[7] = molecular target: TAOK3 (Homo sapiens, UniProt Q9H2K8); experiment: KINOMEscan: TAOK3; format: binding; details: 100 nM, read-out: Percent Control
[8] = molecular target: TBK1 (Homo sapiens, UniProt Q9UHD2); experiment: KINOMEscan: TBK1; format: binding; details: 100 nM, read-out: Percent Control
TBK1, sequence (Q9UHD2 whole entry): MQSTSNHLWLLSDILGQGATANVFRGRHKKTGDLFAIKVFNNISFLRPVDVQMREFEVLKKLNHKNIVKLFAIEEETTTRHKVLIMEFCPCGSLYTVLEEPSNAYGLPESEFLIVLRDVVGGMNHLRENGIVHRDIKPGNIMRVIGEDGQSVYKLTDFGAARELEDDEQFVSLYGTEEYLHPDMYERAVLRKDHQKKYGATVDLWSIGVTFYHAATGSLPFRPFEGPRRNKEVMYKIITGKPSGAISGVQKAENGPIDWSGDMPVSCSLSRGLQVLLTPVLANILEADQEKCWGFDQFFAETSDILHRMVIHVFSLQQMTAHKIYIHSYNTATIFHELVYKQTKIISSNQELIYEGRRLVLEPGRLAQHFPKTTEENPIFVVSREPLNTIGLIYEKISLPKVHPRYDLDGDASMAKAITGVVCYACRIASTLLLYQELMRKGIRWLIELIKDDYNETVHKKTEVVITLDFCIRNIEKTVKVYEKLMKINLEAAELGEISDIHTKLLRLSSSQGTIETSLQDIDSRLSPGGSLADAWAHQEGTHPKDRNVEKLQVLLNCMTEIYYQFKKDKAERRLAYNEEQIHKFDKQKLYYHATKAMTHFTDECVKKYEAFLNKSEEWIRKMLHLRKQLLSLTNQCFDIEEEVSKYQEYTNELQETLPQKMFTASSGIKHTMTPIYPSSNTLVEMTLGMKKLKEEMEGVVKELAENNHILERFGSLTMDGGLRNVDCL

[9] = molecular target: TSSK3 (Homo sapiens, UniProt Q96PN8); experiment: KINOMEscan: TSSK3; format: binding; details: 100 nM, read-out: Percent Control
TSSK3, sequence (Q96PN8 whole entry): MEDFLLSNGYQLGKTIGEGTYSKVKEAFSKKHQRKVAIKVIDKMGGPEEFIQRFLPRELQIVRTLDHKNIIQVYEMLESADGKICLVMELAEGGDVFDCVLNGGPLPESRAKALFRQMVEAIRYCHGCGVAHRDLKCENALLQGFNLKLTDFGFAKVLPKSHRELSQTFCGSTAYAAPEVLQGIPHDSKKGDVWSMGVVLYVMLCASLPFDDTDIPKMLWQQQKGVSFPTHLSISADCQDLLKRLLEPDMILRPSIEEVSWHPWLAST

[10] = molecular target: ULK1 (Homo sapiens, UniProt O75385); experiment: KINOMEscan: ULK1; format: binding; details: 100 nM, read-out: Percent Control
[11] = molecular target: WNK1 (Homo sapiens, UniProt Q9H4A3); experiment: KINOMEscan: WNK1; format: binding; details: 100 nM, read-out: Percent Control
[12] = molecular target: YES (Homo sapiens, UniProt P07947); experiment: KINOMEscan: YES; format: binding; details: 100 nM, read-out: Percent Control
YES, sequence (P07947 whole entry): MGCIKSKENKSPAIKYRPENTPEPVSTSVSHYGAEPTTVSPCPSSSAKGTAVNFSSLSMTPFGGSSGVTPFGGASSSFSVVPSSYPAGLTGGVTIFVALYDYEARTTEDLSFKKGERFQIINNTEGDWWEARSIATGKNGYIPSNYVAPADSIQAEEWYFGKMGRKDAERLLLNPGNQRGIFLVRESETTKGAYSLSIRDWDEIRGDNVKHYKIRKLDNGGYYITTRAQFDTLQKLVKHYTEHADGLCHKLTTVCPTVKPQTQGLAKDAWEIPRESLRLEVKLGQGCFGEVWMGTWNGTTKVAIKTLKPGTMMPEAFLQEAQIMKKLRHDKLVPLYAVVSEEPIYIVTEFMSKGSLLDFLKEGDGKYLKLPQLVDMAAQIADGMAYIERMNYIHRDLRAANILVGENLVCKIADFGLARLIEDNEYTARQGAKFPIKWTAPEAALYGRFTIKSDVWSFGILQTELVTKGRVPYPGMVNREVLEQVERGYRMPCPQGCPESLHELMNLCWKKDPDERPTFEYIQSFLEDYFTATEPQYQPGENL

[13] = molecular target: AKT3 (Homo sapiens, UniProt Q9Y243); experiment: KINOMEscan: AKT3; format: binding; details: 1000 nM, read-out: Percent Control
[14] = molecular target: BIKE (Homo sapiens, UniProt Q9NSY1); experiment: KINOMEscan: BIKE; format: binding; details: 1000 nM, read-out: Percent Control
[15] = molecular target: BUB1 (Homo sapiens, UniProt O43683); experiment: KINOMEscan: BUB1; format: binding; details: 1000 nM, read-out: Percent Control
BUB1, sequence (O43683 whole entry): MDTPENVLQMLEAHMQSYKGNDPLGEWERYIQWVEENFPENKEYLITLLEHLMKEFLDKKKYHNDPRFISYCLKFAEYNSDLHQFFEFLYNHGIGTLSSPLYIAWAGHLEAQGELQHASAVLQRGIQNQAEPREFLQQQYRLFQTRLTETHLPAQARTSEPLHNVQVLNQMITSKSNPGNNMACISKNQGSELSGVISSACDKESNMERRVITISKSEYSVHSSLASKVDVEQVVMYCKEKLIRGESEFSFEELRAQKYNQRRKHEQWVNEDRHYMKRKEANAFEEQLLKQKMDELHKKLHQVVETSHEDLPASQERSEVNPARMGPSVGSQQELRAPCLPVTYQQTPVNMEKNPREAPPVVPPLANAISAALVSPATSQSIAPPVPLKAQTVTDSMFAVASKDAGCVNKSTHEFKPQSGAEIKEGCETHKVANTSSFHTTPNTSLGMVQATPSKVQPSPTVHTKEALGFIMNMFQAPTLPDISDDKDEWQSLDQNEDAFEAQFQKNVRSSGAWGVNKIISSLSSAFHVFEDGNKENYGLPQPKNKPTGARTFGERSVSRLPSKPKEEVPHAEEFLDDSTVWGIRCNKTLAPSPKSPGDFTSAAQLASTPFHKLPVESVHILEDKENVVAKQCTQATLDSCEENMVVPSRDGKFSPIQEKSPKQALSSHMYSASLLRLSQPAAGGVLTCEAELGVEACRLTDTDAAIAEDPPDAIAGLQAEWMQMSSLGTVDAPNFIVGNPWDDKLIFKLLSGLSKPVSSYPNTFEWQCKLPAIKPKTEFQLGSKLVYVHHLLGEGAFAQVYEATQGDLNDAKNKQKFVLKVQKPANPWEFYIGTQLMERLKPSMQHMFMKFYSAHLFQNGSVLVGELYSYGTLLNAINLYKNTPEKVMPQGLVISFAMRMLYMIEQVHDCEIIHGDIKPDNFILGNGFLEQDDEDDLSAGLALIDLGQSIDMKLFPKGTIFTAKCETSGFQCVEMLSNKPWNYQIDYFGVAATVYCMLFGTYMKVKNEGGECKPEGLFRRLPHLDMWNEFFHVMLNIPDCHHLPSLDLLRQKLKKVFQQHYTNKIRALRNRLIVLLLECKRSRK

[16] = molecular target: CAMK1B (Homo sapiens, UniProt Q6P2M8); experiment: KINOMEscan: CAMK1B; format: binding; details: 1000 nM, read-out: Percent Control
CAMK1B, sequence (Q6P2M8 whole entry): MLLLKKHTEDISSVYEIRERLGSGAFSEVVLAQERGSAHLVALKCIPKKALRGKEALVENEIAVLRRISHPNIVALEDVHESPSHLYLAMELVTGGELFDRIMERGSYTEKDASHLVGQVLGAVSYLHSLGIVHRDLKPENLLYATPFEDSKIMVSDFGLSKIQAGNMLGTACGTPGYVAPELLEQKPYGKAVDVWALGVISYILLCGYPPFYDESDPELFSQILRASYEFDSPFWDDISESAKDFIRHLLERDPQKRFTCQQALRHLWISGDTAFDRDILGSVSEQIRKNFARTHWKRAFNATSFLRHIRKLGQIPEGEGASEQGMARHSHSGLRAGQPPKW

[17] = molecular target: CAMKK2 (Homo sapiens, UniProt Q96RR4); experiment: KINOMEscan: CAMKK2; format: binding; details: 1000 nM, read-out: Percent Control
[18] = molecular target: CDK4 (Homo sapiens, UniProt P11802); experiment: KINOMEscan: CDK4; format: binding; details: 1000 nM, read-out: Percent Control
CDK4, sequence (P11802 whole entry): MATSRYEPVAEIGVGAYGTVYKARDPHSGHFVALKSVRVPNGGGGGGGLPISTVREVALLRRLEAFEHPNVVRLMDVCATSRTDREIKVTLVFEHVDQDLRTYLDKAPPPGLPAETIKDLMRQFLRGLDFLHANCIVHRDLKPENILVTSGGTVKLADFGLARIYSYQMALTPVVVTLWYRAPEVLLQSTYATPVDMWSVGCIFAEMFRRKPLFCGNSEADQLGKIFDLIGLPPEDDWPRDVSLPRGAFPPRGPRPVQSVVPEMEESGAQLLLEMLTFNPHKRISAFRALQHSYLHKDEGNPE

[19] = molecular target: CDK4-cyclinD3 (Homo sapiens, UniProt P11802); experiment: KINOMEscan: CDK4-cyclinD3; format: binding; details: 1000 nM, read-out: Percent Control
[20] = molecular target: EPHA4 (Homo sapiens, UniProt P54764); experiment: KINOMEscan: EPHA4; format: binding; details: 1000 nM, read-out: Percent Control
EPHA4, sequence (P54764 20-986): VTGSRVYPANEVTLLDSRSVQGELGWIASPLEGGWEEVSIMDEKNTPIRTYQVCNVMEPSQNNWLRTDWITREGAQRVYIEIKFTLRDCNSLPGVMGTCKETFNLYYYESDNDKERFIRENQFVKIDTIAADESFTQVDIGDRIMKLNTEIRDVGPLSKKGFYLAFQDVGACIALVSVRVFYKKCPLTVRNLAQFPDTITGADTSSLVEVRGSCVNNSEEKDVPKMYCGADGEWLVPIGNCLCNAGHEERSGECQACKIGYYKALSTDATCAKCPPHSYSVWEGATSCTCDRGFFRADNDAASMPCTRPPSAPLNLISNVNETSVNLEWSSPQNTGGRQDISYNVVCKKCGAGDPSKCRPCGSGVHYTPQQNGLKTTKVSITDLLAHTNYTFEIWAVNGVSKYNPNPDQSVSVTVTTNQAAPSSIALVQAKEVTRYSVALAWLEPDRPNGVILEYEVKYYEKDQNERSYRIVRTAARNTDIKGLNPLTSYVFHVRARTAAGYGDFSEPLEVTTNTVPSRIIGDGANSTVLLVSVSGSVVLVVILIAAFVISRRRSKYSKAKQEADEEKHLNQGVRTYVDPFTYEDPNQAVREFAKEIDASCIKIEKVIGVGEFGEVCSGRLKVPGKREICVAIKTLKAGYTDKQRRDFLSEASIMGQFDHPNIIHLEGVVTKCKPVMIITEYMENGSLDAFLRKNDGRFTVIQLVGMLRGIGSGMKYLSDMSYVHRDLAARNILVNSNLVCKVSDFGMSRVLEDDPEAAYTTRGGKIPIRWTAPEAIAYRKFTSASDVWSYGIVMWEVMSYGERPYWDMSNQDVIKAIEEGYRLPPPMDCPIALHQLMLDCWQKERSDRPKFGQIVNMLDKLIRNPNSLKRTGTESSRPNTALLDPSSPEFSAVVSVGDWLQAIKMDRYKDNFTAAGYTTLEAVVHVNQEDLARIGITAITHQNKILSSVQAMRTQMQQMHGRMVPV

[21] = molecular target: FES (Homo sapiens, UniProt P07332); experiment: KINOMEscan: FES; format: binding; details: 1000 nM, read-out: Percent Control
[22] = molecular target: HIPK1 (Homo sapiens, UniProt Q86Z02); experiment: KINOMEscan: HIPK1; format: binding; details: 1000 nM, read-out: Percent Control
[23] = molecular target: LZK (Homo sapiens, UniProt O43283); experiment: KINOMEscan: LZK; format: binding; details: 1000 nM, read-out: Percent Control
[24] = molecular target: MAP4K4 (Homo sapiens, UniProt O95819); experiment: KINOMEscan: MAP4K4; format: binding; details: 1000 nM, read-out: Percent Control

CDK9, sequence (P50750 whole entry): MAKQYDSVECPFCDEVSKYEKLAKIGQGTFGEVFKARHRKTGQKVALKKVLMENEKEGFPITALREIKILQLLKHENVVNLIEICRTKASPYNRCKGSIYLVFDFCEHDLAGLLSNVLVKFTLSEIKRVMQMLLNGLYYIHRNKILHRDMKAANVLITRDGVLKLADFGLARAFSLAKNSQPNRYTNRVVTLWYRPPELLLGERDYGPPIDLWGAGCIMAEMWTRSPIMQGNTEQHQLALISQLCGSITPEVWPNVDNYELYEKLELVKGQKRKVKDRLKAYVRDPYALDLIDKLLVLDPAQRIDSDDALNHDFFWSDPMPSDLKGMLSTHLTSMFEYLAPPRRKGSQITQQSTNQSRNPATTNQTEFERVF

COc1cc(F)ccc1-c1cc(Nc2cc(CS(C)(=N)=O)ccn2)ncc1F (stereo not shown) [VIP152]
inhibition of CDK9 greater than that of CDK7 ([1]; 100 nM): 7 fold | inhibition at 0.1 µM ([1]; 100 nM, read-out: inhibition of CDK9 activity compared with control): 95.3% | inhibition at 1 µM ([1]; 1000 nM): 99% | remaining binding at 0.1 µM ([1]; CDK9, 100 nM, read-out: Percent Control): 4.7% | remaining binding at 1 µM ([1]; CDK9, 1000 nM, read-out: Percent Control): 1% | inhibition at 10 µM [2]: 3% | % Inh. [3]: -9% | % Inh. [4]: 20% | remaining binding at 0.1 µM [5]: 100% | remaining binding at 0.1 µM [6]: 97% | remaining binding at 0.1 µM [7]: 88% | remaining binding at 0.1 µM [8]: 62% | remaining binding at 0.1 µM [9]: 96% | remaining binding at 0.1 µM [10]: 93% | remaining binding at 0.1 µM [11]: 100% | remaining binding at 0.1 µM [12]: 100% | remaining binding at 1 µM [13]: 98% | remaining binding at 1 µM [14]: 38% | remaining binding at 1 µM [15]: 7.1% | remaining binding at 1 µM [16]: 98% | remaining binding at 1 µM [17]: 16% | remaining binding at 1 µM [18]: 71% | remaining binding at 1 µM [19]: 14% | remaining binding at 1 µM [20]: 94% | remaining binding at 1 µM [21]: 87% | remaining binding at 1 µM [22]: 54% | remaining binding at 1 µM [23]: 100% | remaining binding at 1 µM [24]: 44%
